Test results reported in patent publication US4062948A, “Dihydromocimycin antibiotics” (Gist-Brocades N.V., priority 1970, dated 1977).
≈ marks a conversion by molar mass, not a printed value.

What was measured:
Experiment in all cases: micro liquid serial dilution test (Table II)
Assay type in all cases: cell-based
[1] = system: Diplococcus pneumoniae A 188; conditions: Streptococcus pneumoniae, A188; 18 hours at 30° C or 37° C; read-out: Minimum inhibitory concentration
Protocol: (§1) The microbiological activity of the antibiotic preparation towards a number of micoorganisms has been determined by a micro liquid serial dilution test:
(§2) A stock solution of the test compounds at a concentration of 200 μg/ml in 0.05 molar phosphate buffer at a pH of 6.5 was prepared and serial 1:1 dilutions were made with a liquid medium inoculated with the test organism, using conventional glass spot-test plates. The plates were incubated 18 hours at 30° C or 37° C. The minimum inhibitory concentration (MIC) which is the smallest concentration of compound completely inhibiting the growth of the test organism is read and calculated in μg/ml.

[2] = system: Escherichia coli NCTC 8196; conditions: NCTC8196, 18 hours at 30° C or 37° C, read-out: Minimum inhibitory concentration
Protocol: as §1, §2

Proteus rettgeri A 821 = conditions: Providencia rettgeri, A821; 18 hours at 30° C or 37° C; read-out: Minimum inhibitory concentration
Protocol: as §1, §2

[3] = system: Streptococcus disgalactiae A 730; conditions: A730, 18 hours at 30° C or 37° C, read-out: Minimum inhibitory concentration
Protocol: as §1, §2

[4] = system: Actinobacillus equuli T 3; conditions: T3, 18 hours at 30° C or 37° C, read-out: Minimum inhibitory concentration
Protocol: as §1, §2

Erwinia caretovora W 9 = conditions: W9, 18 hours at 30° C or 37° C, read-out: Minimum inhibitory concentration
Protocol: as §1, §2

[5] = system: Trichophyton mentagrophytes R 177; conditions: R177, 18 hours at 30° C or 37° C, read-out: Minimum inhibitory concentration
Protocol: as §1, §2

[6] = system: Mycoplasma synoviae A 2082; conditions: Mycoplasmopsis synoviae, A2082; 18 hours at 30° C or 37° C; read-out: Minimum inhibitory concentration
Protocol: as §1, §2

Sarcina lutea ATCC 9341 = conditions: Micrococcus luteus, ATCC9341; 18 hours at 30° C or 37° C; read-out: Minimum inhibitory concentration
Protocol: as §1, §2

Micrococcus flavus A 54 = conditions: A54, 18 hours at 30° C or 37° C, read-out: Minimum inhibitory concentration
Protocol: as §1, §2

[7] = system: Bacillus subtilis ATCC 6633; conditions: ATCC6633, 18 hours at 30° C or 37° C, read-out: Minimum inhibitory concentration
Protocol: as §1, §2

[8] = system: Streptococcus agalactiae A 732; conditions: A732, 18 hours at 30° C or 37° C, read-out: Minimum inhibitory concentration
Protocol: as §1, §2

[9] = system: Salmonella typhimurium R 127; conditions: Salmonella enterica, 18 hours at 30° C or 37° C, read-out: Minimum inhibitory concentration
Protocol: as §1, §2

[10] = system: Staphylococcus aureus A 55 (ATCC 65388); conditions: ATCC65388, 18 h, read-out: Minimum inhibitory concentration
Protocol: as §1, §2

[11] = system: Staphylococcus aureus A 321; conditions: A321, 18 hours at 30° C or 37° C, read-out: Minimum inhibitory concentration
Protocol: as §1, §2

[12] = system: Candida parapsilosis A 952; conditions: Lodderomyces parapsilosis, A952; 18 hours at 30° C or 37° C; read-out: Minimum inhibitory concentration
Protocol: as §1, §2

Proteus mirabilis L 93 = conditions: L93, 18 hours at 30° C or 37° C, read-out: Minimum inhibitory concentration
Protocol: as §1, §2

[13] = system: Saccharomyces cerevisiae D 160; conditions: D160, 18 hours at 30° C or 37° C, read-out: Minimum inhibitory concentration
Protocol: as §1, §2

[14] = system: Mycoplasma gallisepticum K 514
Protocol: as §1, §2

Proteus mirabilis H 3 = conditions: H3, 18 hours at 30° C or 37° C, read-out: Minimum inhibitory concentration
Protocol: as §1, §2

[15] = system: Mycoplasma suipneumoniae A 2174; conditions: Mesomycoplasma hyopneumoniae, A2174; 18 hours at 30° C or 37° C; read-out: Minimum inhibitory concentration
Protocol: as §1, §2

[16] = system: Streptococcus faecalis L 80; conditions: Enterococcus faecalis, L80; 18 hours at 30° C or 37° C; read-out: Minimum inhibitory concentration
Protocol: as §1, §2

[17] = system: Mycoplasma hyorhinus A 2230; conditions: A2230, 18 hours at 30° C or 37° C, read-out: Minimum inhibitory concentration
Protocol: as §1, §2

Vibrio coli 1846 = conditions: Campylobacter coli, 18 hours at 30° C or 37° C, read-out: Minimum inhibitory concentration
Protocol: as §1, §2

[18] = system: Bacillus cereus ATCC 9139; conditions: ATCC9139, 18 hours at 30° C or 37° C, read-out: Minimum inhibitory concentration
Protocol: as §1, §2

[19] = system: Haemophilus influenzae A 773; conditions: A773, 18 hours at 30° C or 37° C, read-out: Minimum inhibitory concentration
Protocol: as §1, §2

For `CC=CC=CC1OC(O)(C(CC)C(=O)NCC=CC=C(C)C(OC)C(C)C2OC(C=CC=CC=C(C)C(=O)c3c(O)cc[nH]c3=O)C(O)C2O)C(O)C(O)C1(C)C` (stereo not drawn) [mocimycin], the MIC [1] was 1 µg/mL (≈ 1.25 µM), the MIC [2] was 50 µg/mL (≈ 62.7 µM) and the MIC (Proteus rettgeri A 821) was greater than 100 µg/mL. For the same compound, the MIC [3] was 0.6 µg/mL (≈ 0.753 µM), the MIC [4] was 1.5 µg/mL (≈ 1.88 µM) and the MIC (Erwinia caretovora W 9) was 6 µg/mL (≈ 7.53 µM). It also gave an MIC [5] greater than 100 µg/mL, an MIC [6] of 1 µg/mL (≈ 1.25 µM) and an MIC (Sarcina lutea ATCC 9341) of 25 µg/mL (≈ 31.4 µM). It also gave an MIC (Micrococcus flavus A 54) of 4 µg/mL (≈ 5.02 µM), an MIC [7] of 50 µg/mL (≈ 62.7 µM) and an MIC [8] of 0.9 µg/mL (≈ 1.13 µM). For the same compound, the MIC [9] was greater than 100 µg/mL, the MIC [10] was 100 µg/mL (≈ 125 µM) and the MIC [11] was 100 µg/mL (≈ 125 µM). It also gave an MIC [12] greater than 100 µg/mL, an MIC (Proteus mirabilis L 93) of 100 µg/mL (≈ 125 µM) and an MIC [13] greater than 100 µg/mL. For the same compound, the MIC ([14]; Mycoplasmoides gallisepticum, K514, 18 hours at 30° C or 37° C, read-out: Minimum inhibitory concentration) was 0.1 µg/mL (≈ 0.125 µM), the “activity against Mycoplasma gallisepticum” value ([14]; in vitro, summary of Table II) was “high activity” and the MIC (Proteus mirabilis H 3) was 50 µg/mL (≈ 62.7 µM). It also gave an MIC [15] of 1 µg/mL (≈ 1.25 µM), an MIC [16] greater than 200 µg/mL and an MIC [17] of 3 µg/mL (≈ 3.76 µM). It also gave an MIC (Vibrio coli 1846) of 100 µg/mL (≈ 125 µM), an MIC [18] of 0.3 µg/mL (≈ 0.376 µM) and an MIC [19] of 2 µg/mL (≈ 2.51 µM).
